The results in this text go back to ChEMBL document CHEMBL4715727, “Design, synthesis, and biological evaluation of a novel series of peripheral-selective noradrenaline reuptake inhibitors-Part 2” (Bioorg Med Chem, 2016).

Data set [1] deals with T1, Cytochrome P450 2D6 (Homo sapiens, UniProt P10635). Nature of the data set: Drug metabolism in human hepatocytes assessed as CYP2D6-mediated N-(((6S,7R)-7-(4-chloro-3-fluorophenyl)-1,4-oxazepan-6-yl)methyl)-2-hydroxyacetamide formation at 10 uM incubated for 6 hrs by LC/MS/MS anlaysis. The format is ADME, cell-based, Hepatocyte.
T1 sequence (P10635 whole entry): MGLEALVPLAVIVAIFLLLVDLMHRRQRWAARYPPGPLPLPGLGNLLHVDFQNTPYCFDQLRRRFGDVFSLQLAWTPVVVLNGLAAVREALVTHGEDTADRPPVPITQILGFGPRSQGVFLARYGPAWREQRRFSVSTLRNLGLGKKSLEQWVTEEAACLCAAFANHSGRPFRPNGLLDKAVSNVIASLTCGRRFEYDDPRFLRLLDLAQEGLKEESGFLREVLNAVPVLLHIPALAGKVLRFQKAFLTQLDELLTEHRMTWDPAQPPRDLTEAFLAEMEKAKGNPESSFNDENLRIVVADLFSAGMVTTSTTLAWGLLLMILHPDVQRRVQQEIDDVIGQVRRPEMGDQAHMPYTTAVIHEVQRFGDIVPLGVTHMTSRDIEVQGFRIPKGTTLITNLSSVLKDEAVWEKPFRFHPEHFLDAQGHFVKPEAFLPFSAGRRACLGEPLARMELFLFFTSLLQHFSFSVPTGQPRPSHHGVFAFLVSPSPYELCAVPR
Data set [2] deals with Sodium-dependent serotonin transporter (Homo sapiens, UniProt P31645). Kind of data set: Inhibition of human SERT expressed in CHO-K1 cells assessed as inhibition of [3H]-5-hydroxytryptamine reuptake measured after 20 mins by Microscintillation counting analysis. It is filed as cell-based.
Chain of Sodium-dependent serotonin transporter (P31645 whole entry): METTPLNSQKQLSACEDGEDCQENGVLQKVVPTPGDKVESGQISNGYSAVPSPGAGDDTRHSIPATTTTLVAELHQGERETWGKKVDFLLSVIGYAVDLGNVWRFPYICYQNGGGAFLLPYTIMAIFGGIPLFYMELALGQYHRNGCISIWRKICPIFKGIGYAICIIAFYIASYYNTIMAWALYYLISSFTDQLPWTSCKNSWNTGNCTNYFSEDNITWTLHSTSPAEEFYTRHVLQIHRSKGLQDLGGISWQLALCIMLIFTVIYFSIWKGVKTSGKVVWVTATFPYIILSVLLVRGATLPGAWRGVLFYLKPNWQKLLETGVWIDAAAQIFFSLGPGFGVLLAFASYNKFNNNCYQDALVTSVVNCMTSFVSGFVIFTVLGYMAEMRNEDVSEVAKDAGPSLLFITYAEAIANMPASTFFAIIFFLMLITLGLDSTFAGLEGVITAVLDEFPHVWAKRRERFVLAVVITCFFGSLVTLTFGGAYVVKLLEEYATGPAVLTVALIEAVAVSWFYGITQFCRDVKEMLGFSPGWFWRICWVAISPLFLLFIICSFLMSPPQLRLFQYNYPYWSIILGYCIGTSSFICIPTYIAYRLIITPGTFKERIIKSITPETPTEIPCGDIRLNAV
In data set [3] the target is Sodium-dependent noradrenaline transporter (Homo sapiens, UniProt P23975). Kind of data set: Inhibition of human NET expressed in CHO-K1 cells assessed as inhibition of [3H]-norepinephrine reuptake measured after 45 mins by Microscintillation counting analysis. It is filed as cell-based.
Chain of Sodium-dependent noradrenaline transporter (P23975 whole entry): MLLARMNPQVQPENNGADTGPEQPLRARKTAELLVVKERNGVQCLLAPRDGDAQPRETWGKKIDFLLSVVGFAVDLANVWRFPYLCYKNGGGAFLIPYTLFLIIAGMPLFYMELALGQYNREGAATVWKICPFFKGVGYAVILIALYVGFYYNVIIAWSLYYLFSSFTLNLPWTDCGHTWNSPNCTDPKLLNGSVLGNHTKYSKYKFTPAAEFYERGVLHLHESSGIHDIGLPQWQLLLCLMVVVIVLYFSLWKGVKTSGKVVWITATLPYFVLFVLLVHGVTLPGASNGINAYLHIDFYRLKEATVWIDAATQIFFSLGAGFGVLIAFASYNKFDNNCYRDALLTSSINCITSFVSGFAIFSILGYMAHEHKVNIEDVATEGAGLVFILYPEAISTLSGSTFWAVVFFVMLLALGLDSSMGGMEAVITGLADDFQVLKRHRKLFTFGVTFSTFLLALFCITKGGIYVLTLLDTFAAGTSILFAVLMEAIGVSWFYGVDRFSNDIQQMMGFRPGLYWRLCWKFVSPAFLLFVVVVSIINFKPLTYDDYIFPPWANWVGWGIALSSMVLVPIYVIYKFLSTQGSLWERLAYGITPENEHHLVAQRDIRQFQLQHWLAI
Data set [4] has as its target Sodium-dependent dopamine transporter (Homo sapiens, UniProt Q01959). Nature of the data set: Inhibition of human DAT expressed in CHO-K1 cells assessed as inhibition of [3H]-dopamine reuptake measured after 60 mins by Microscintillation counting analysis. The format is cell-based.
Data set [5] is described as follows: Permeability coefficient of the compound at 10 uM at pH 7.4 measured after 3 hrs by PAMPA based LC/MS/MS analysis. Set-up: unit not given here. The format is ADME. Particulars: pH 7.4, 3 h.
Data set [6] has as its target MDR1 (ABCB1, P-gp) (Homo sapiens, UniProt P08183). Nature of the data set: Substrate activity at human MDR1 expressed in LLC-PK1 cells assessed as efflux ratio of permeability from basolateral to apical side over apical to basolateral side at 10 uM measured after 2 hrs by LC/MS/MS analysis. It is filed as ADME, cell-based.
Data set [7] deals with CYP2D6 (Homo sapiens, UniProt P10635). Kind of data set: Inhibition of CYP2D6 (unknown origin) expressed in insect cells assessed as reduction in 1'-hydroxybufuralol formation using bufuralol as substrate at 10 uM incubated for 60 mins by LC/MS/MS analysis. The format is ADME. Particulars: recombinant CYP2D6 expressed in insect cells, probe bufuralol.
Chain of CYP2D6 (P10635 whole entry): as the sequence (P10635 whole entry) above
Data set [8] deals with Cytochrome P450 3A4 (Homo sapiens, UniProt P08684). Nature of the data set: Drug metabolism assessed as CYP3A4 (unknown origin) expressed in microsomes-mediated metabolism by measuring metabolic rate at 1 uM incubated for 10 mins by UPLC analysis. The format is ADME, Microsome.
Chain of Cytochrome P450 3A4 (P08684 whole entry): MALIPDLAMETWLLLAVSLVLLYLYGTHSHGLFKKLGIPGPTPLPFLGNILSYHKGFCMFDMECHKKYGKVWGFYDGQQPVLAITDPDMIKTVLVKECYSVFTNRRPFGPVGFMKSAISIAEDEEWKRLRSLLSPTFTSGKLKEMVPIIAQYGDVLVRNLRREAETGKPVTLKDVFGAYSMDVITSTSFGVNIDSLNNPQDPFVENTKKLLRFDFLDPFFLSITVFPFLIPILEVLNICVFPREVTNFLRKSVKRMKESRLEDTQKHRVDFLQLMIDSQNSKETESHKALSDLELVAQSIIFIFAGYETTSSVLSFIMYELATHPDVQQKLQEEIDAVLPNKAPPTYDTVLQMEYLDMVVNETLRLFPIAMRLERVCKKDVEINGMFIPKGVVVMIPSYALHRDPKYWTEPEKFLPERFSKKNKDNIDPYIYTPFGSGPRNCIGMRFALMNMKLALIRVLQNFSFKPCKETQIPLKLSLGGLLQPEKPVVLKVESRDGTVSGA
In data set [9] the target is T1, Cytochrome P450 2D6. Kind of data set: Drug metabolism assessed as CYP2D6 (unknown origin) expressed in microsomes-mediated metabolism by measuring metabolic rate at 1 uM incubated for 10 mins by UPLC analysis. It is filed as ADME, Microsome.
The target in data set [10] is Cytochrome P450 2C19 (Homo sapiens, UniProt P33261). Kind of data set: Drug metabolism assessed as CYP2C19 (unknown origin) expressed in microsomes-mediated metabolism by measuring metabolic rate at 1 uM incubated for 10 mins by UPLC analysis. It is filed as ADME, Microsome.
Chain of Cytochrome P450 2C19 (P33261 whole entry): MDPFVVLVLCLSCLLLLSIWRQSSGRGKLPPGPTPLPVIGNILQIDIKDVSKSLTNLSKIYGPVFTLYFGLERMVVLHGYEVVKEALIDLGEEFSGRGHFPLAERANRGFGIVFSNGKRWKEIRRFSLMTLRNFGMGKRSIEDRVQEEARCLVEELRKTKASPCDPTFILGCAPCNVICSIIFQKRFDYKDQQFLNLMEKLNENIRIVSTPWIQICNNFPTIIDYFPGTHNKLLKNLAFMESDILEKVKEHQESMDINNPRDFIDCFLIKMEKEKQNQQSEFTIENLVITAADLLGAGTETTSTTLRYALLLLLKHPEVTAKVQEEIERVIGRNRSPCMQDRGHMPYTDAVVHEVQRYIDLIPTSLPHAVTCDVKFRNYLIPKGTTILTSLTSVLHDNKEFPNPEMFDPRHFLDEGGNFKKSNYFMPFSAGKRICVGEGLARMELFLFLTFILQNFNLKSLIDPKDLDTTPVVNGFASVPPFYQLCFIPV
Data set [11] can be described thus: Drug metabolism assessed as CYP2B6/CYP2C9/CYP2E1/CYP2C8/CYP1A2 (unknown origin) expressed in microsomes-mediated metabolism by measuring metabolic rate at 1 uM incubated for 10 mins by UPLC analysis. It is filed as ADME, Microsome. Particulars: human.
Data set [12] deals with T1, Cytochrome P450 2D6. Kind of data set: Drug metabolism assessed as CYP2D6 (unknown origin)-expressed in microsomes mediated N-(((6S,7R)-7-(4-chloro-3-fluorophenyl)-1,4-oxazepan-6-yl)methyl)-2-hydroxyacetamide formation at 1 uM incubated for 10 mins by UPLC anlaysis. The format is ADME, Microsome.
In data set [13] the test system is Rattus norvegicus. Nature of the data set: Anti-SUI activity in po dosed rat assessed as induction of urethral resistance by measuring increase in leak point pressure measured after 15 to 240 mins. It is filed as functional, organism-based. Particulars: dose 1-10 mg/kg, time 15-240 min, tested as the 2H-labelled form.
Data set [14] concerns the target hERG (KCNH2) (Homo sapiens, UniProt Q12809). Kind of data set: Inhibition of human ERG at 10 uM.
Data set [15] in a line: Oral bioavailability in Crl:CD(SD)(IGS) rat at 1 mg/kg measured after 8 hrs by LC/MS/MS analysis. It is filed as ADME, organism-based. Particulars: in vivo.
Data set [16] in a line: Ex vivo receptor occupancy at NET in Sprague-Dawley rat left brain cortex assessed as [3H]nisoxetine labelling at 3 mg/kg, iv measured after 20 mins by scintillation counting analysis. The format is functional.

Chain of MDR1 (ABCB1, P-gp) (P08183 whole entry): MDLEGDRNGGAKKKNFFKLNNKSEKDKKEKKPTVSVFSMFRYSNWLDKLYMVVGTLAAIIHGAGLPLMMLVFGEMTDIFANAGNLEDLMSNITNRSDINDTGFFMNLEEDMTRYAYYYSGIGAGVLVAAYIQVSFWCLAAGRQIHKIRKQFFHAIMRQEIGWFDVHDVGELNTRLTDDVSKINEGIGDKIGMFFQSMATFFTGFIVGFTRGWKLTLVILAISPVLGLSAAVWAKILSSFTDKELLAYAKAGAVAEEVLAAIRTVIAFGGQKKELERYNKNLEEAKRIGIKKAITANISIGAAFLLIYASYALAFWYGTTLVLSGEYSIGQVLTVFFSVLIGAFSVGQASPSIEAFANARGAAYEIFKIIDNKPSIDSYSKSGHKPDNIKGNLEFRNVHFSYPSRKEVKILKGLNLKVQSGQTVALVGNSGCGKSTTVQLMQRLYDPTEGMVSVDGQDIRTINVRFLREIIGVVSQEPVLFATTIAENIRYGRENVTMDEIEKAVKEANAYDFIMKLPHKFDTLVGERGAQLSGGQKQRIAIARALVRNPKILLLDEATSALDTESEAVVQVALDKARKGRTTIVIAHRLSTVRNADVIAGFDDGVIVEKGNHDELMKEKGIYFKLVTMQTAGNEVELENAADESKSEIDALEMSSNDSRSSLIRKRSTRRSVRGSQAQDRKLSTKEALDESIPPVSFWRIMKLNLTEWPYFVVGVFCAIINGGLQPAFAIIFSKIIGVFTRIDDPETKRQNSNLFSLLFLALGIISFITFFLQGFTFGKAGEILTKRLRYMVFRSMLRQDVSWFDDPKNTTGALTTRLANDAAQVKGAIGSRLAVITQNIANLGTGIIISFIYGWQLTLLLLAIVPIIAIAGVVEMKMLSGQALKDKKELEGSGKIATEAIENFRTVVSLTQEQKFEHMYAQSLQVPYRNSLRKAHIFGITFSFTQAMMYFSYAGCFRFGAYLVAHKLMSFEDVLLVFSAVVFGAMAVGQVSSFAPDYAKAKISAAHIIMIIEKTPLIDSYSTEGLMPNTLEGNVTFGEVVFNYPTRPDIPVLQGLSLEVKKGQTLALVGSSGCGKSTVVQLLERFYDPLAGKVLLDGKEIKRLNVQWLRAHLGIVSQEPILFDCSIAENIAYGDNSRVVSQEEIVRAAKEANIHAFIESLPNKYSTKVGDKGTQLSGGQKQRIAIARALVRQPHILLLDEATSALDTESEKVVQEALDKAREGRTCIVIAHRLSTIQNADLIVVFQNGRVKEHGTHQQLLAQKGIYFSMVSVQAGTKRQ
Chain of Sodium-dependent dopamine transporter (Q01959 whole entry): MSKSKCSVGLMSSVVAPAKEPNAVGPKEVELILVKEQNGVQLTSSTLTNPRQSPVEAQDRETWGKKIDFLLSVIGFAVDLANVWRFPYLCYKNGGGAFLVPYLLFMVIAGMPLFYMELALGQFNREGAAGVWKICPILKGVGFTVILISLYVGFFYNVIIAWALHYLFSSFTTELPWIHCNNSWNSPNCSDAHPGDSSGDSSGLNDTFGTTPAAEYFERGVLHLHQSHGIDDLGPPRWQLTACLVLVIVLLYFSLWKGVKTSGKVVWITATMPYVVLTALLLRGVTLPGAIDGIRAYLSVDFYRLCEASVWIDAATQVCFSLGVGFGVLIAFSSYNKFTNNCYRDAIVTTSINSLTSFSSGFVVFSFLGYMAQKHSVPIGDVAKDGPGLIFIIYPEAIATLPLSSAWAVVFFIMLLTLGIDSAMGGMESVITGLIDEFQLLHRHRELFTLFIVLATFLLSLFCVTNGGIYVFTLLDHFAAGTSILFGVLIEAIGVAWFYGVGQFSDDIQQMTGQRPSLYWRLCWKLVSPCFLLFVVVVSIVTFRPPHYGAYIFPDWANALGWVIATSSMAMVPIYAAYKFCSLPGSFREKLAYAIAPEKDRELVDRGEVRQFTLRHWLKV

`COCC(=O)NC[C@@H]1CNCCO[C@H]1c1ccc(Cl)c(F)c1.Cl`: the Drug metabolism result is given as “Metabolite_Detected” in [1]; 0 %/min/pmol in data set [8]; 0.081 %/min/pmol in [9]; 0.016 %/min/pmol in [10]; 0 %/min/pmol in data set [11]; “Metabolite_Detected” in [12]. In addition, the 50% inhibitory concentration (IC50) was 0.44 µM in data set [2], 0.0032 µM in [3] and above 1 µM in data set [4]. In addition, in data set [5], the Pe was found to be 221. In addition, the efflux ratio at 2 h, 10 µM in data set [6] worked out at 2.1. In data set [7], the inhibition at 1 h, 10 µM turned out to be 48%. Besides, the Activity entry in [13] was “Dose-dependent effect”.

For the molecule `COCC(=O)NC[C@@H]1CNCCO[C@H]1c1ccc(Cl)c(Cl)c1.Cl`, the IC50 came out at 0.07 µM in data set [2], 0.0012 µM in data set [3] and 1.6 µM in [4]. For the same molecule, the Pe in data set [5] came out at 279. For the same molecule, in data set [6], the efflux ratio at 2 h, 10 µM was 2.1. Also, the inhibition at 1 h, 10 µM in data set [7] was found to be 70%.

Turning to `CCC(=O)NC[C@@H]1CNCCO[C@H]1c1ccc(Cl)c(Cl)c1.Cl`, the IC50 in [2] is 0.12 µM; in data set [3], 0.0015 µM; in [4] it was above 1 µM. Moreover, the Pe in [5] turned out to be 207. In data set [6], the efflux ratio at 2 h, 10 µM amounted to 4.8. In addition, the inhibition at 1 h, 10 µM in data set [7] was determined as 41%.

As for `COCCC(=O)NC[C@@H]1CNCCO[C@H]1c1ccc(Cl)c(F)c1.Cl`, the results for the half-inhibitory concentration (IC50) in data set [2], in [3] and in data set [4] were 0.89 µM, 0.0039 µM and above 1 µM, respectively. For the same molecule, the Pe in data set [5] stood at 151. The efflux ratio at 2 h, 10 µM in data set [6] amounted to 12. Moreover, in [7], the inhibition at 1 h, 10 µM was 44%.

In the case of `CCOCC(=O)NC[C@@H]1CNCCO[C@H]1c1ccc(Cl)c(F)c1.Cl`, the 50% inhibitory concentration (IC50) in data set [2] was 0.22 µM; in data set [3], 0.0033 µM; in [4] it was above 1 µM. Further, the efflux ratio at 2 h, 10 µM in data set [6] is 1.4. In addition, the inhibition at 1 h, 10 µM in data set [7] was 79%. Moreover, the Drug metabolism came out at 0.026 %/min/pmol in data set [8], 0.365 %/min/pmol in data set [9], 0.005 %/min/pmol in [10] and 0 %/min/pmol in [11].

Turning to `CC(=O)NC[C@@H]1CNCCO[C@H]1c1ccc(Cl)c(Cl)c1.Cl`, the half-maximal inhibitory concentration (IC50) in data set [4] is above 1 µM. In addition, the Pe in data set [5] is listed as 146. For the same molecule, the efflux ratio at 2 h, 10 µM in data set [6] turned out to be 5. For the same molecule, the inhibition at 1 h, 10 µM in data set [7] was 26%.

For `Cl.O=C(NC[C@@H]1CNCCO[C@H]1c1ccc(Cl)c(F)c1)C1COCCO1` (some centres not stated), the concentration for half-maximal inhibition (IC50) in data set [2] was 0.54 µM; in data set [3] it was 0.0026 µM; in data set [4] it was above 1 µM. Moreover, the efflux ratio at 2 h, 10 µM in data set [6] was 3.6. Moreover, the inhibition at 1 h, 10 µM in data set [7] worked out at 66%.

As to `COC(C)(C)C(=O)NC[C@@H]1CNCCO[C@H]1c1ccc(Cl)c(F)c1.Cl`, the IC50 in data set [2] was 0.52 µM; in [3] it was 0.021 µM; in [4] it was above 1 µM. Besides, the efflux ratio at 2 h, 10 µM in data set [6] turned out to be 2.4. The inhibition at 1 h, 10 µM in data set [7] is 42%.

Turning to `COC(C)C(=O)NC[C@@H]1CNCCO[C@H]1c1ccc(Cl)c(F)c1.Cl` (some centres not stated), the values for the IC50 in [2], in data set [3] and in [4] were 0.8 µM, 0.0088 µM and above 1 µM, respectively. For the same molecule, the efflux ratio at 2 h, 10 µM in data set [6] was 1.9. Moreover, in data set [7], the inhibition at 1 h, 10 µM amounted to 33%.

For the molecule `Cl.[2H]C([2H])([2H])OCC(=O)NC[C@@H]1CNCCO[C@H]1c1ccc(Cl)c(F)c1`, the Drug metabolism result in data set [1] was “Metabolite_Detected”; in [8], 0.015 %/min/pmol; in data set [9], 0.035 %/min/pmol; in data set [10] it was 0.012 %/min/pmol; in data set [11], 0.008 %/min/pmol. Moreover, the inhibition at 10 µM in [14] was 17%. Besides, the figures for the IC50 in data set [2], in data set [3] and in data set [4] were 0.68 µM, 0.0033 µM and above 1 µM, respectively. Besides, the efflux ratio at 2 h, 10 µM in data set [6] was found to be 2.1. Moreover, the inhibition at 1 h, 10 µM in data set [7] was found to be 49%. In data set [15], this molecule had a bioavailability of 68%. In [16], the Occ stood at 3.8%.

Take `CCCC(=O)NC[C@@H]1CNCCO[C@H]1c1ccc(Cl)c(Cl)c1.Cl`: the IC50 was 0.062 µM in data set [2], 0.0026 µM in [3] and above 1 µM in [4]. For the same molecule, the Pe in [5] was 260. Besides, the efflux ratio at 2 h, 10 µM in data set [6] was found to be 3. For the same molecule, in data set [7], the inhibition at 1 h, 10 µM was 62%.

In the case of `CC(C)OCC(=O)NC[C@@H]1CNCCO[C@H]1c1ccc(Cl)c(F)c1.Cl`, the IC50 in data set [2] was 0.39 µM; in data set [3], 0.0048 µM; in data set [4], above 1 µM. Moreover, in data set [6], the efflux ratio at 2 h, 10 µM turned out to be 1.7. In addition, the inhibition at 1 h, 10 µM in data set [7] was 66%. The Drug metabolism in data set [8] amounted to 0.064 %/min/pmol; in [9], 0.37 %/min/pmol; in [10] it was 0.017 %/min/pmol; in data set [11], 0 %/min/pmol.

Take `Cl.O=C(NC[C@@H]1CNCCO[C@H]1c1ccc(Cl)c(F)c1)C1CCCO1` (some centres not stated): the results for the IC50 in data set [2], in data set [3] and in data set [4] were 0.2 µM, 0.0053 µM and above 1 µM, respectively. In addition, the efflux ratio at 2 h, 10 µM in [6] was 3.5. Moreover, the inhibition at 1 h, 10 µM in [7] came out at 80%.
